Experimental data: patent US20230364118A1, “RIBITOL TREATMENT” (priority 2020, published 2023)
“Also recorded” adds a separate entry of the source. Read-outs that look alike come from different tables or passages of the source.

How the values were obtained:
[1] = 28-day repeat-dose oral toxicokinetics; assay type: in vivo, Bama minipig; conditions: Bama, minipig, plasma, po; for Tmax: median (range); for AUC(0-t): read-out: AUC0-24; for Cmax: read-out: Cmax
Method: Toxicokinetics of ribitol was evaluated as part of the 28-day toxicology study in male and female Bama minipig. […] Animals in control group were dosed for 28 days twice daily with the vehicle only (Purified Water). On Days 1 and 28, blood samples were collected at 0 (pre first dose), 0.5, 1, 2, 4, 6 (pre-second dose), 6.5, 7, 8, 10, 12, and 24 hours from all available animals.

[2] = Plasma protein binding, animals pooled (range); assay type: in vitro ADME, CD-1 mouse; conditions: CD-1, Sprague-Dawley, Gottingen, mouse, rat, minipig, animal plasma, 0.49 and 1.31 mM
Method: Protein binding studies with ribitol were performed in vitro using plasma from CD-1 mouse, Sprague-Dawley rat, Gottingen minipig, and human at 75 μg/mL (0.49 mM) and 200 μg/mL (1.31 mM) using the rapid equilibrium dialysis method. The percent of ribitol bound to plasma was approximately similar between the two concentrations tested in all species.

[3] = Metabolic stability, all species; assay type: in vitro ADME, CD-1 mouse, Sprague-Dawley rat, Gottingen minipig, human; conditions: incubated up to 2 hours, all four species
Method: Metabolic stability of ribitol was conducted in liver microsomes, cytosol, and primary hepatocytes, from CD-1 mouse, Sprague-Dawley rat, Gottingen minipig, and human at a concentration of ribitol of 10 μM.
Therefore, metabolism is unlikely to be a major elimination pathway of ribitol.

[4] = tested on: matriglycan expression; experiment: Matriglycan expression in wild type mice; assay type: in vivo, mouse; conditions: one month, 5% ribitol in drinking water; vs vehicle
Method: Wild type mice were dosed with ribitol to assess matriglycan expression in normal mice. The mice were treated for one month with 5% ribitol in drinking water ad libitum. Muscle samples were evaluated for matriglycan expression at the end of dosing via Western Blot analysis (FIG. 9).

[5] = in vivo; conditions: minipig, po
Method: The purpose of this study was to determine the MTD following two oral doses 6±0.5 hours apart (Phase 1) and to characterize the toxicity and TK profile following 7 days BID dosing with ribitol with 6±0.5 hours between doses in minipigs.
Minipigs were assessed for viability, clinical signs, body weight, food consumption, clinical pathology (hematology, coagulation, and serum chemistry), organ weights (adrenal glands, brain, heart, kidneys, liver with gall bladder, ovary, spleen, testes, and thymus), and macroscopic pathology at necropsy. Blood was taken for plasma TK analysis on Days 1 and 7.
In Phase 1, Bama minipigs (2/sex/group) were ribitol at 0.3, 1.0, 1.5, or 2.0 g/kg/dose BID (0.6, 2.0, 3.0, or 4.0 g/kg/day) with 5.5 to 6.5 hours between doses. […] Minipigs were assessed for viability, clinical signs, body weight, food consumption, and macroscopic findings at necropsy.
Doses were selected for Phase 2 based on the Phase 1 study results and in compliance with the guidance criteria for high dose selection for general toxicity studies (ICH M3 [R2]). In this phase, minipigs (2/sex/group) were given oral doses of 0 (vehicle control, water), 0.1, 0.3, or 1.0 g/kg/dose ribitol BID with 5.5 to 6.5 hours between doses (0.2, 0.6, or 2.0 g/kg/day, respectively).

[6] = female, 0.3 g/kg, 0.3 g/kg/dose BID, Day 1, Female, mean ± SD
[7] = female, 0.3 g/kg, 0.3 g/kg/dose BID, Day 28, Female, mean ± SD
[8] = female, 1 g/kg, 1.0 g/kg/dose BID (2.0 g/kg/day, NOAEL), Day 28, Female
[9] = female, 1 g/kg, 1.0 g/kg/dose BID, Day 1, Female, mean ± SD
[10] = female, 2 g/kg/day, 1.0 g/kg/dose BID (2.0 g/kg/day, NOAEL), Day 28, Female
[11] = male, 0.1 g/kg, 0.1 g/kg/dose BID, Day 1, Male, mean ± SD
[12] = male, 0.1 g/kg, 0.1 g/kg/dose BID, Day 28, Male, mean ± SD
[13] = male, 0.3 g/kg, 0.3 g/kg/dose BID, Day 1, Male, mean ± SD
[14] = male, 0.3 g/kg, 0.3 g/kg/dose BID, Day 28, Male, mean ± SD
[15] = male, 1 g/kg, 1.0 g/kg/dose BID (2.0 g/kg/day, NOAEL), Day 28, Male
[16] = male, 1 g/kg, 1.0 g/kg/dose BID, Day 1, Male, mean ± SD
[17] = male, 2 g/kg/day, 1.0 g/kg/dose BID (2.0 g/kg/day, NOAEL), Day 28, Male

SMILES: OC[C@@H](O)[C@@H](O)[C@@H](O)CO [ribitol, (2R,3s,4S)-Pentane-1,2,3,4,5-pentol]
- Tmax ([1]; female, 0.1 g/kg, 0.1 g/kg/dose BID, Day 28, Female): 7 h
- AUC(0-t) [1, 6]: 605 ± 83.4 µg·h/mL
- Cmax [1, 6]: 98.4 ± 28 µg/mL
- Tmax ([1]; female, 0.3 g/kg, 0.3 g/kg/dose BID, Day 1, Female): 4.3 h
- AUC(0-t) [1, 7]: 894 ± 125 µg·h/mL
- Cmax [1, 7]: 139 ± 40.9 µg/mL
- Tmax ([1]; female, 0.3 g/kg, 0.3 g/kg/dose BID, Day 28, Female): 4.3 h
- AUC(0-t) [1, 8]: 1980 µg·h/mL
- Cmax [1, 8]: 281 µg/mL
- AUC(0-t) [1, 9]: 1770 ± 582 µg·h/mL
- Cmax [1, 9]: 261 ± 82.4 µg/mL
- Tmax ([1]; female, 1 g/kg, 1.0 g/kg/dose BID, Day 1, Female): 6.8 h
- Tmax ([1]; female, 1 g/kg, 1.0 g/kg/dose BID, Day 28, Female): 7 h
- AUC(0-t) [1, 10]: 1980 µg·h/mL
- Cmax [1, 10]: 281 µg/mL
- AUC(0-t) [1, 11]: 210 ± 75 µg·h/mL
- Cmax [1, 11]: 39.8 ± 16.8 µg/mL
- Tmax ([1]; male, 0.1 g/kg, 0.1 g/kg/dose BID, Day 1, Male): 6.8 h
- AUC(0-t) [1, 12]: 215 ± 68.9 µg·h/mL
- Cmax [1, 12]: 37.2 ± 14.2 µg/mL
- Tmax ([1]; male, 0.1 g/kg, 0.1 g/kg/dose BID, Day 28, Male): 3.8 h
- AUC(0-t) [1, 13]: 539 ± 215 µg·h/mL
- Cmax [1, 13]: 104 ± 52.1 µg/mL
- Tmax ([1]; male, 0.3 g/kg, 0.3 g/kg/dose BID, Day 1, Male): 4.3 h
- AUC(0-t) [1, 14]: 585 ± 227 µg·h/mL
- Cmax [1, 14]: 123 ± 78.2 µg/mL
- Tmax ([1]; male, 0.3 g/kg, 0.3 g/kg/dose BID, Day 28, Male): 0.8 h
- AUC(0-t) [1, 15]: 2560 µg·h/mL
- Cmax [1, 15]: 475 µg/mL
- AUC(0-t) [1, 16]: 1930 ± 373 µg·h/mL
- Cmax [1, 16]: 365 ± 93.6 µg/mL
- Tmax ([1]; male, 1 g/kg, 1.0 g/kg/dose BID, Day 1, Male): 3.8 h
- Tmax ([1]; male, 1 g/kg, 1.0 g/kg/dose BID, Day 28, Male): 0.8 h
- AUC(0-t) [1, 17]: 2560 µg·h/mL
- Cmax [1, 17]: 475 µg/mL
- fraction unbound [2]: 0.554 to 0.614
- metabolic stability in liver microsomes, cytosol, hepatocytes [3]: stable; also recorded: not metabolized by the enzymes in the liver
- matriglycan expression (Western Blot) [4]: No increase in matriglycan expression
- MTD at 14 days ([5]; both, Bama): ≥ 4000 mg/kg/day
- MTD [5]: ≥ 2.0 g/kg/dose BID
